Legend:
[1] = Plasma concentration in Sprague-Dawley rat at 10 mg/kg, po administered 40 mins prior to glucose-challenge measured at 35 mins post last dose during OGTT assay; type: ADME, organism-based
[2] = Plasma concentration in Sprague-Dawley rat at 10 mg/kg, po administered 40 mins prior to glucose-challenge measured at 95 mins post last dose during OGTT assay; type: ADME, organism-based
[3] = Plasma concentration in Sprague-Dawley rat at 10 mg/kg, po administered 40 mins prior to glucose-challenge measured at 155 mins post last dose during OGTT assay; type: ADME, organism-based
[4] = Cmax in rat at 10 mg/kg, po; type: ADME, organism-based; design: dose 10 mg/kg, route oral; settings: in vivo
[5] = Volume of distribution at steady state in rat at 10 mg/kg, po or 2 mg/kg, iv; type: ADME, organism-based; settings: in vivo, read-out: Vdss
[6] = Oral bioavailability in rat at 10 mg/kg; type: ADME, organism-based; settings: in vivo
[7] = Retention time of compound by LC-MS/MS analysis; type: physicochemical
[8] = Plasma concentration in Sprague-Dawley rat at 1 mg/kg, po administered 40 mins prior to glucose-challenge measured at 160 mins post last dose during OGTT assay; type: ADME, organism-based
[9] = Plasma concentration in Sprague-Dawley rat at 10 mg/kg, po administered 40 mins prior to glucose-challenge measured at 160 mins post last dose during OGTT assay; type: ADME, organism-based

Row | concentration at 35 min [1] [µM] | concentration at 95 min [2] [µM] | concentration at 155 min [3] [µM] | Cmax [4] [ng/mL] | Vd [5] [L/kg] | bioavailability [6] [%] | Retention_time [7] [min] | concentration at 160 min [8] [nM] | concentration at 160 min [9] [µM] | SMILES
1 | – | – | – | 2520 | 1.1 | 82.1 | – | – | 7.42 | CC#C[C@@H](Cc1nnn[nH]1)c1ccc(OCc2ccc3sc(C(F)(F)F)c(-c4ccccc4C)c3c2)cc1
2 | – | – | – | 1590 | 2.2 | 62.3 | – | – | 3.74 | CC#C[C@@H](Cc1nnn[nH]1)c1ccc(OCc2ccc3sc(F)c(-c4ccccc4C)c3c2)cc1
3 | – | – | – | 4220 | 0.8 | 72 | – | – | 8.09 | CC#C[C@@H](Cc1nnn[nH]1)c1ccc(OCc2ccc3sc(Cl)c(-c4ccccc4C)c3c2)cc1

Continued, compound first:

Row | SMILES | concentration at 35 min [1] [µM] | concentration at 95 min [2] [µM] | concentration at 155 min [3] [µM] | Cmax [4] [ng/mL] | Vd [5] [L/kg] | bioavailability [6] [%] | Retention_time [7] [min] | concentration at 160 min [8] [nM] | concentration at 160 min [9] [µM]
4 | CC#C[C@@H](Cc1nnn[nH]1)c1ccc(OCc2ccc3sc(C(F)(F)F)c(-c4ccc(OCCOC)cc4C)c3c2)cc1 | 5.66 | 3.9 | 4.41 | – | – | – | – | – | –
5 | CC#C[C@@H](Cc1nnn[nH]1)c1ccc(OCc2ccc3scc(-c4ccccc4C)c3c2)cc1 | – | – | – | 576 | 1.5 | 43.2 | 26.64 | 320 | 1.85
6 | CC#C[C@@H](Cc1nnn[nH]1)c1ccc(OCc2ccc3scc(-c4ccc(OCC5(C)CS(=O)(=O)C5)cc4C)c3c2)cc1 | – | – | – | 356 | 5.9 | 50.3 | – | – | –
7 | CC#C[C@@H](Cc1nnn[nH]1)c1ccc(OCc2ccc3scc(-c4ccc(OCCCS(C)(=O)=O)cc4C)c3c2)cc1 | – | – | – | 417 | 5.1 | 56.8 | – | – | –
